7 compounds from US11932652B2, “Pyrrolidinyl urea derivatives and application thereof in TrkA-related diseases” (ZHANGZHOU PIEN TZE HUANG PHARMACEUTICAL CO., LTD., priority 2018, dated 2024) can be followed below.

A short description of series [1]: Metabolic stability (MMS) by rat liver microsome. Format: in vitro ADME. Conditions: liver microsomes, pH 7.4, 0.5 mg protein/mL, read-out: Intrinsic clearance by liver microsome, Rat. As for the experimental part: (§1) Determination of the metabolic stability of the test compound by human, rat and canine liver microsome.
(§2) Test compound (10 mM), testosterone (reference compound, 10 mM), diclofenac (reference compound, 10 mM), propafenone (reference compound, 10 mM).
(§3) 100 mM potassium phosphate buffer (pH 7.4).
(§4) Intermediate solution: 45 μL of DMSO was used (with 450 μL of 1:1 methanol/water) to dilute 5 μL of the test or reference compound.
(§5) Working solution: 450 μL of 100 mM potassium phosphate buffer was used to dilute the intermediate solution.
(§6) 1. β-Nicotinamide adenine dinucleotide phosphate, from Sigma, Cat. No. N0505.
(§7) 3. Isocitrate dehydrogenase, from Sigma, Cat. No. 12002.
(§8) Preparation of liver microsome solution (final concentration: 0.5 mg protein/mL)
(§9) Cold acetonitrile containing 100 ng/mL tolbutamide and 100 ng/mL labetalol was used as the internal standard.
(§10) 10 μL of the working solution of the test compound or reference compound was added to all plates (T0, T5, T10, T20, T30, T60, NCF60).
(§11) 680 μL of liver microsome solution was added to each well of 96-well plates, then 80 μL was added to each well of the plates, and the plates were placed at 37° C. for pre-incubation for approximately 10 minutes. […]
(§12) The half-life T/2 and the intrinsic clearance by liver microsome Clint(mic) were calculated by the following formulas: […]
(In general: Liver microsomes are a subcellular fraction often used to study metabolism.)

Series [2] has as its target T1, CYP3A4 (Homo sapiens, UniProt P08684).
T1 construct: from tissue; host or cells: human liver microsomes
In words: Cytochrome P450 isozyme inhibitory activity test, CYP3A4. Format: in vitro ADME. As to conditions: human, human liver microsomes. As for the experimental part:
(§13) Determination of the inhibitory activity of the test compound on different human cytochrome P450 isozymes.
(§14) The test compound, standard inhibitor (100×final concentration), and a mixed substrate working solution were prepared; the microsome frozen in −80° C. refrigerator was thawed. 2 μL of the test compound and standard inhibitor solution was added to the corresponding wells, and at the same time 2 μL of the corresponding solvent was added to the non-inhibitor control wells (NIC) and blank control wells (Blank) wells; then 20 μL of mixed substrate solution was added to the corresponding wells, except for the Blank wells (20 μL of PB was added to the Blank wells); a human liver microsome solution was prepared (put back into the refrigerator immediately after using and marking the date), and then 158 μL of the human liver microsome solution was added to all wells; the above sample plate was placed in a 37° C. water bath for pre-incubation, then the coenzyme factor (NADPH) solution was prepared; 10 minutes later, 20 μL of the NADPH solution was added to all wells, and the sample plate was shaken well, placed in a 37° C. water bath and incubated for 10 minutes; at the corresponding time point, 400 μL of cold acetonitrile solution (internal standard: 200 ng/mL tolbutamide and labetalol) was added to terminate the reaction; the sample plate was evenly mixed, centrifuged at 4000 rpm for 20 minutes to precipitate proteins; 200 μL of the supernatant was added to 100 μL of water, shook well, and tested by LC/MS/MS.

Series [3] has as its target T2, CYP2C19 (Homo sapiens, UniProt P33261).
T2 construct: from tissue; host or cells: human liver microsomes
In words: Cytochrome P450 isozyme inhibitory activity test, CYP2C19. Format: in vitro ADME. Conditions: heading: Cytochrome P450 isozyme IC50, CYP2C19; human liver microsome. The procedure:
as §13, §14

For series [4], the target named is T3, CYP2C9 (Homo sapiens, UniProt P11712).
T3 construct: from tissue; host or cells: human liver microsomes
T3 sequence (P11712 whole entry): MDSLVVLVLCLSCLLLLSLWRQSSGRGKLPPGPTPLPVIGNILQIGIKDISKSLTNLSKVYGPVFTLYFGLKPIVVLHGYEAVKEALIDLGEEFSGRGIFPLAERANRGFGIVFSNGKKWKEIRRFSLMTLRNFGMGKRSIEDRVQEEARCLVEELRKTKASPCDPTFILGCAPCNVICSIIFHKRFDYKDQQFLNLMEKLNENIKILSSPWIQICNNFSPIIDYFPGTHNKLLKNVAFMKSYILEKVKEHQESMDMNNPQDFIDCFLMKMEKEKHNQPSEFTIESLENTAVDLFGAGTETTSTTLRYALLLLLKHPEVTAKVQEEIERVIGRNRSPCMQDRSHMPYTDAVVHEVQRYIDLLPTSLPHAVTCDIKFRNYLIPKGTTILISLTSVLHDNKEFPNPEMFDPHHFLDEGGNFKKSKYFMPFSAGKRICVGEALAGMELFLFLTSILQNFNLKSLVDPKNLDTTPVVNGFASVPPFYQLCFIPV
In words: Cytochrome P450 isozyme inhibitory activity test, CYP2C9. Format: in vitro ADME. The procedure:
as §13
(§15) The test compound, standard inhibitor (100×final concentration), and a mixed substrate working solution were prepared; the microsome frozen in −80° C. refrigerator was thawed. […]

Series [5] relates to plasma protein. In words: Plasma protein binding rate (PPB) test, SD rat plasma. Conditions: 2 μM, dialysis 37° C. 4 hours. It counts as in vitro ADME. The procedure: (§16) The protein binding rates of the test compound in the plasma of humans, SD rats and Beagle dogs were determined.
(§17) 796 μL of blank plasma from humans, SD rats and Beagle dogs (plasma purchased from BioreclamationIVT) were taken, 4 μL of working solution of the test compound (400 μM) or warfarin working solution (400 μM) was added and the final concentration of the test compound or warfarin was 2 μM. The sample was mixed thoroughly. The final concentration of organic phase DMSO was 0.5%; 50 μL of the plasma sample treated with the test compound or warfarin was pipetted into the sample receiving plate, and a corresponding volume of blank plasma or buffer was added immediately so that the final volume in each sample well was 100 μL, the volume ratio of plasma:dialysis buffer was 1:1; 400 μL of stop solution was added to these samples, and these samples were used as T0 samples for recovery and stability determination. To samples were stored at 2° C. to 8° C. for subsequent processing together with other dialyzed samples; 150 μL of the plasma sample treated with the test compound or warfarin was added into the dosing end of each dialysis hole, and 150 μL of blank dialysis buffer was added to the receiving end corresponding to the dialysis hole. Then the dialysis plate was sealed with gas-permeable membrane and placed in a humidified 5% CO2 incubator, and incubated at 37° C. with 100 rpm shaking for 4 hours. After the dialysis, 50 μL of the dialysis buffer sample and the dialysis plasma sample was transferred to a new sample receiving plate. […] All samples were analyzed by LC/MS/MS after protein precipitation, and the plasma protein unbound rate, binding rate and recovery rate was calculated according to the following formula: % unbound rate=100*free compound concentration at the membrane buffer side/total compound concentration at the membrane plasma side, % protein binding rate=100-% unbound rate, % recovery rate=100*(free compound concentration at the membrane buffer side+total compound concentration at the membrane plasma side)/total compound concentration before dialysis.

The nature of series [6]: Metabolic stability (MMS) by human liver microsome. Format: in vitro ADME. As to conditions: liver microsomes, pH 7.4, 0.5 mg protein/mL, read-out: Intrinsic clearance by liver microsome, Human. As for the experimental part:
as §1, §2, §3, §4, §5, §6, §7, §8, §9, §10, §11, §12

In series [7] the test system is plasma protein. In words: Plasma protein binding rate (PPB) test, human plasma. Format: in vitro ADME. As to conditions: 2 μM, dialysis 37° C. 4 hours. As for the experimental part: as §16, §17
For series [8], the target named is T4, CYP2D6 (Homo sapiens, UniProt P10635).
T4 construct: from tissue; host or cells: human liver microsomes
T4 sequence (P10635 whole entry): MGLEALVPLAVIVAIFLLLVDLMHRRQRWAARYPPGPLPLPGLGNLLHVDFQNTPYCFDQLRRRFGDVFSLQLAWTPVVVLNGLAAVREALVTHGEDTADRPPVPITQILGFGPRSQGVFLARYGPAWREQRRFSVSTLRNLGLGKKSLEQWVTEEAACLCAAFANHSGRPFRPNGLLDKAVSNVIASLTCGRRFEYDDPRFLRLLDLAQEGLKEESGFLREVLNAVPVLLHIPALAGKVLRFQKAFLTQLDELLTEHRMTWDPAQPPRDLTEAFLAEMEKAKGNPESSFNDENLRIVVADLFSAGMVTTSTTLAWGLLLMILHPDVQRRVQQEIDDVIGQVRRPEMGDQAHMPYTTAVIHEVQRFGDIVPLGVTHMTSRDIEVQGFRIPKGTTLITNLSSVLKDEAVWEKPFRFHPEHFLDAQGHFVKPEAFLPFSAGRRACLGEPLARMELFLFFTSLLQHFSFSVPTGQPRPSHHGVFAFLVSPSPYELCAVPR
In words: Cytochrome P450 isozyme inhibitory activity test, CYP2D6. Format: in vitro ADME. Conditions: human liver microsomes. As for the experimental part: as §13, §15

Series [9] deals with T5, TrkA (Homo sapiens, UniProt P04629).
T5 construct: purchased Invitrogen PV4114
T5 sequence (P04629 33-796): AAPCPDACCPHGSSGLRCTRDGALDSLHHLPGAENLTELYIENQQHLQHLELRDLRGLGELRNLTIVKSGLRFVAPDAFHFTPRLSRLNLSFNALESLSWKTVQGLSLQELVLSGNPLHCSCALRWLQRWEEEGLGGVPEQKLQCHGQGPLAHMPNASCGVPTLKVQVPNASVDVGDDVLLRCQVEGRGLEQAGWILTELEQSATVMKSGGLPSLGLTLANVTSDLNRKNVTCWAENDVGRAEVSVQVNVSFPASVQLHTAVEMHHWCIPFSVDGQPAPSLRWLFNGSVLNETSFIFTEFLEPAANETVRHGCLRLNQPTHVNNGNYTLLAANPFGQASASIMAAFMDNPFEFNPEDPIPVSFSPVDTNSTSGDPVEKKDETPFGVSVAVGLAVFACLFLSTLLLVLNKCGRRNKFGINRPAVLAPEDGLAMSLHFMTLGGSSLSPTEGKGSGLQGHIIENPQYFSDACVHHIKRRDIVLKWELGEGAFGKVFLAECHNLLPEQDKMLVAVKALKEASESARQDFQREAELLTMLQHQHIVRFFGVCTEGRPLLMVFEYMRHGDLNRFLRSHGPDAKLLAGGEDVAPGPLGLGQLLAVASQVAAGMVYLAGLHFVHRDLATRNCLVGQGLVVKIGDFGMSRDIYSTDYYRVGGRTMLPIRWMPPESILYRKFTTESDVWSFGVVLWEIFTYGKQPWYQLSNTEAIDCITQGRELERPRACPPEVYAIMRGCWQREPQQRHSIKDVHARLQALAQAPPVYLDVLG
In words: TrkA enzyme activity test (HTRF). As to conditions: 0.5 nM TrkA kinase, 90 μM ATP, 23° C., 90 minutes. It counts as biochemical. The procedure:
50 mM Hepes (pH 7.5), 5 mM MgCl2 (magnesium chloride), 0.01 mM orthovanadate (sodium vanadate), 1% BSA (bovine serum albumin), 1 mM (dithiothreitol)
This experiment used Cisbio's homogeneous time-resolved fluorescence resonance energy transfer (HTRF® method) for activity test. In the test plate, the enzyme, biotin-labeled peptide substrate, ATP, and test compound were mixed, and incubated for reaction. After the reaction, ethylenediaminetetraacetic acid was added to terminate the reaction; at the same time, Eu-labeled antibody and streptavidin-labeled XL665 were added for reaction and detection. The data were expressed by the readings of the fluorescence signal at 665 nm and 620 nm, where a high ratio of 665 nm/620 nm indicated higher activity, and a low ratio of 665 nm/620 nm indicated inhibition of activity.
1. Dilution of compound: the test compound was 3-fold diluted to prepare a total of 11 concentrations, the concentration was from 10 μM to 0.17 nM in the final system;
2. A 10 μL reaction system with a buffer of 50 mM Hepes (pH 7.5), 5 mM MgCl2, 0.01 mM sodium vanadate, 1% BSA, and 1 mM DTT, and containing 0.5 nM TrkA kinase, 0.3 μM biotin-TK peptide (biotin-labeled tyrosine kinase substrate peptide), 90 μM ATP was incubated at 23° C. for 90 minutes. 10 μL of stop solution containing 20 mM EDTA, 1.34 nM phosphorylated substrate antibody, and 100 nM streptavidin-labeled fluorescent molecule XL-665 was then added, incubated at 23° C. for 60 minutes; the signal was read with Envision;
3. The inhibition rate of the compound was calculated from the data read by the instrument, and the IC50 value was calculated using the mode 205 in XLFIT5 of IDBS.
Background: Time-resolved FRET reads energy transfer from a long-lived donor to a nearby acceptor.

Structures are written as SMILES.

For orientation: IC50 means the concentration at which inhibition is half-maximal.

T2 sequence (P33261 whole entry): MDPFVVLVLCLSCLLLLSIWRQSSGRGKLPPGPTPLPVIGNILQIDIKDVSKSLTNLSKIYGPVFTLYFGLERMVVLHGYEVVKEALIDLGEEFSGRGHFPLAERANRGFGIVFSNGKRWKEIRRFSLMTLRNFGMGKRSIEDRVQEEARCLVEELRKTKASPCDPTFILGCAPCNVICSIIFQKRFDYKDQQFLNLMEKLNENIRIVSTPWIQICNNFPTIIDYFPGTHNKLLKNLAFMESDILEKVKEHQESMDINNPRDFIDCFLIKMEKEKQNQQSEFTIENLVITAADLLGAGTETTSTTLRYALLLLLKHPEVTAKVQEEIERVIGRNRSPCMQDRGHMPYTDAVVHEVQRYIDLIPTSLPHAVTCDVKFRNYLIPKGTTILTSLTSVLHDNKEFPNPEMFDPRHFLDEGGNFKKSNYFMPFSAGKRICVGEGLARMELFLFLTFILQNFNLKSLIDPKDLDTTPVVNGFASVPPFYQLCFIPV
T1 sequence (P08684 whole entry): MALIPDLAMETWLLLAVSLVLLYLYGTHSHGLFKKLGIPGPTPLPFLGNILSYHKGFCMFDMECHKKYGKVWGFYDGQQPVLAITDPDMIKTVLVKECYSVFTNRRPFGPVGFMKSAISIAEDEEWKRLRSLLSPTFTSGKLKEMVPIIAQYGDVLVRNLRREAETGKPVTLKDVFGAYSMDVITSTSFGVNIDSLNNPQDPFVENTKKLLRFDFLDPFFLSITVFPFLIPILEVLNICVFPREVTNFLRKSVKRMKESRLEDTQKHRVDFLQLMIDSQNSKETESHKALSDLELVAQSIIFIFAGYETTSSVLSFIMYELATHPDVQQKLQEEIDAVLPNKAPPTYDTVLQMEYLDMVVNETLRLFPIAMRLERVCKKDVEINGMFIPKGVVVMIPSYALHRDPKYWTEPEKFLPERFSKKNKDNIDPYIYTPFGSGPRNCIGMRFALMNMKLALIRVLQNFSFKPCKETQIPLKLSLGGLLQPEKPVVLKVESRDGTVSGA

For the compound `COCCN1C[C@@H](NC(=O)Nc2c(C)c(-c3cnc(C)nc3)nn2-c2ccccc2)[C@H](c2cccc(F)c2)C1` [Reference compound D1, reference compound], the results for the CLint scaled in [1] and in series [6] were 52.9 mL/min/kg and 52.1 mL/min/kg, respectively. Also, the values for the half-inhibitory concentration (IC50) at 10 min in [2] and in [8] were 37.1 µM and 39.7 µM, respectively. The IC50 is > 50 µM in series [3] and > 50 µM in [4] (heading: Cytochrome P450 isozyme IC50, CYP2C9, human liver microsome). Further, the “Plasma protein unbound rate, SD Rat plasma” value in [5] is reported as 9.6%. For the same compound, the “Plasma protein unbound rate, Human plasma” value in [7] turned out to be 13.6%.

In [9], `COCCN1C[C@@H](n2ccc(F)c2)[C@H](NC(=O)Nc2c(C)c(-c3cc4n(n3)CCC4)nn2-c2ccccc2)C1` [Compound 4] displayed a concentration for half-maximal inhibition (IC50) of 0.00305 µM.

Regarding `COCCN1C[C@@H](n2ccc(F)c2)[C@H](NC(=O)Nc2c(C)c(-c3cnc4c(c3)COC4)nn2-c2ccccc2)C1` [Compound 5], the half-maximal inhibitory concentration (IC50) in series [9] stood at 0.00024 µM.

Consider `COCCN1C[C@@H](n2cc(F)c(F)c2)[C@H](NC(=O)Nc2c(C)c(-c3cnc(C4(F)COC4)nc3)nn2-c2ccccc2)C1` [Compound 6], for which, in series [9], it took 0.00027 µM to reach half-maximal inhibition (IC50).

Regarding `COCCN1C[C@@H](n2cc(F)c(F)c2)[C@H](NC(=O)Nc2c(C)c(-c3cnc4c(c3)CN(C)C4)nn2-c2ccccc2)C1` [Compound 2], the CLint scaled in series [1] is 25.5 mL/min/kg; in series [6] it was 54.6 mL/min/kg. Besides, in [5], the “Plasma protein unbound rate, SD Rat plasma” value was 5.1%. Moreover, the “Plasma protein unbound rate, Human plasma” value in series [7] stood at 15.3%. This compound had a 50% inhibitory concentration (IC50) in series [9] of 0.00027 µM.

`COCCN1C[C@@H](n2cc(F)c(F)c2)[C@H](NC(=O)Nc2c(C)c(-c3cnc4c(c3)COC4)nn2-c2ccccc2)C1` [Compound 1]: the concentration for half-maximal inhibition (IC50) at 10 min in series [2] turned out to be 19.2 µM; in series [4] (human, human liver microsomes) it was 24.2 µM; in [8], 28.5 µM. For the same compound, the IC50 was > 50 µM in series [3] and 0.00016 µM in [9].

In turn, `COCCN1C[C@@H](n2ccc(F)c2)[C@H](NC(=O)Nc2c(C)c(-c3cnc(C4(F)CNC4)nc3)nn2-c2ccccc2)C1` [Compound 8] returned an IC50 in [9] of 0.00103 µM.
